Assays:
Experiment in all cases: relative viability (nuclei count vs DMSO), 5 days (fraction); higher = more cells survive
[1] = compound: C1COCCN1CC2=CC(=O)C(=CO2)OCCCCCSC3=C4C=CC(=CC4=NC=C3)C(F)(F)F [EHT 1864] + Nc1nc2[nH]cc(CCc3ccc(C(=O)N[C@@H](CCC(=O)O)C(=O)O)cc3)c2c(=O)[nH]1 [Pemetrexed] (partner 0.2 µM)
Outline: (§1)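 Lung cancer cell lines, seeded in 1536-well plates, were treated the following day by pin tool with a single drug or with five library-drug doses (not always all listed) in √10 steps on top of a fixed anchor-drug dose. Cells were fixed and nuclei stained in one step after 5 days, and nuclei were counted. Relative viability is the nuclei count for treated wells divided by that for vehicle wells, reported as medians of duplicate plates.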

[2] = compound: C1COCCN1CC2=CC(=O)C(=CO2)OCCCCCSC3=C4C=CC(=CC4=NC=C3)C(F)(F)F [EHT 1864] + Cc1nc(NC(=O)N2CCC[C@H]2C(N)=O)sc1-c1ccnc(C(C)(C)C(F)(F)F)c1 [Alpelisib] (partner 2 µM)
Outline: as §1

[3] = compound: C1COCCN1CC2=CC(=O)C(=CO2)OCCCCCSC3=C4C=CC(=CC4=NC=C3)C(F)(F)F [EHT 1864] + O=C(c1cc(Cc2n[nH]c(=O)c3ccccc23)ccc1F)N1CCN(C(=O)C2CC2)CC1 [Olaparib] (partner 8 µM)
Outline: as §1

[4] = compound: C1COCCN1CC2=CC(=O)C(=CO2)OCCCCCSC3=C4C=CC(=CC4=NC=C3)C(F)(F)F [EHT 1864] + CC(C)C[C@H](NC(=O)[C@H](Cc1ccccc1)NC(=O)c1cnccn1)B(O)O [Bortezomib] (partner 0.002 µM)
Outline: as §1

| Cell Line | relative viability ([1]; first compound 0.04 µM) | relative viability ([1]; first compound 0.1265 µM) | relative viability ([1]; first compound 0.4 µM) | relative viability ([1]; first compound 1.265 µM) | relative viability ([1]; first compound 4 µM) | relative viability ([2]; first compound 0.04 µM) | relative viability ([2]; first compound 0.1265 µM) | relative viability ([2]; first compound 0.4 µM) | relative viability ([2]; first compound 1.265 µM) | relative viability ([2]; first compound 4 µM) | relative viability ([3]; first compound 0.04 µM) | relative viability ([3]; first compound 0.1265 µM) | relative viability ([3]; first compound 0.4 µM) | relative viability ([3]; first compound 1.265 µM) | relative viability ([3]; first compound 4 µM) | relative viability ([4]; first compound 0.04 µM) | relative viability ([4]; first compound 0.1265 µM) | relative viability ([4]; first compound 0.4 µM) | relative viability ([4]; first compound 1.265 µM) | relative viability ([4]; first compound 4 µM) |
| --- | --- | --- | --- | --- | --- | --- | --- | --- | --- | --- | --- | --- | --- | --- | --- | --- | --- | --- | --- | --- |
| HCC-78 | 0.868 | 0.866 | 0.823 | 0.889 | 0.937 | 0.29 | 0.31 | 0.328 | 0.367 | 0.491 | 0.781 | 0.887 | 0.773 | 0.868 | 0.92 | 0.409 | 0.534 | 0.432 | 0.456 | 1.1 |
| HCC-366 | 0.159 | 0.145 | 0.136 | 0.15 | 0.152 | 0.426 |  | 0.492 | 0.401 | 0.285 | 0.391 | 0.325 | 0.34 | 0.347 | 0.304 | 1.03 |  | 0.928 | 1.03 | 1.11 |
| HCC-827 | 0.279 | 0.27 | 0.227 | 0.3 | 0.235 | 0.981 | 0.887 | 0.958 | 0.953 | 0.891 | 0.79 | 0.641 | 0.625 | 0.652 | 0.633 | 1.1 | 0.844 | 0.999 | 1.11 | 0.985 |
| HOP-62 | 0.438 |  | 0.269 | 0.388 | 0.314 | 1.03 |  | 0.838 | 0.796 | 0.884 | 0.448 |  | 0.435 | 0.438 | 0.453 | 1.18 |  | 0.618 | 1.08 | 0.986 |
| IA-LM |  |  |  |  |  | 0.875 | 0.419 | 0.799 | 0.677 | 0.639 | 0.926 | 0.842 | 0.81 | 0.62 | 0.618 | 0.821 | 0.553 | 0.956 | 0.709 | 0.536 |
| LC-2-ad | 0.265 | 0.271 | 0.247 | 0.274 | 0.308 | 0.837 |  | 0.831 | 0.9 | 0.82 | 0.602 | 0.671 | 0.657 | 0.671 | 0.625 | 0.924 |  | 0.993 | 1.04 | 0.903 |
| LK-2 | 0.305 |  | 0.259 | 0.288 | 0.25 | 1.19 | 0.972 | 1.07 | 1.14 | 0.499 | 0.518 | 0.608 | 0.608 | 0.551 | 0.68 |  |  |  |  |  |
| NCI-H358 | 0.173 | 0.169 | 0.178 | 0.189 | 0.168 | 0.798 |  | 0.877 | 0.965 | 0.837 | 0.626 | 0.594 | 0.574 | 0.551 | 0.548 |  |  |  |  |  |
| NCI-H522 | 1.29 | 0.75 | 0.977 | 1.16 | 1.18 |  |  |  |  |  | 0.719 | 0.66 | 0.63 | 0.666 | 0.734 |  |  |  |  |  |
| NCI-H727 |  |  |  |  |  | 0.623 | 0.593 | 0.524 |  | 0.567 | 1.07 | 0.75 | 0.459 | 0.529 | 0.524 | 0.92 | 0.973 | 0.848 |  | 1.12 |
| NCI-H1299 |  |  |  |  |  | 0.973 | 0.974 | 0.983 | 1.05 | 1.08 | 0.96 | 0.939 | 0.964 | 0.913 | 0.893 | 1.02 | 0.986 | 0.993 | 0.994 | 0.917 |
| NCI-H1395 | 0.923 | 0.73 | 0.89 | 0.805 | 0.915 | 1.54 | 0.942 | 1.01 | 0.967 | 1.38 | 0.472 | 0.548 | 0.48 | 0.488 | 0.459 |  |  |  |  |  |
| NCI-H1563 | 0.682 | 0.709 | 0.742 | 0.626 | 0.74 | 0.853 | 1.03 | 1.04 | 0.96 | 0.805 |  |  |  |  |  | 0.901 | 0.853 | 0.861 | 0.89 | 0.751 |
| NCI-H1648 | 0.827 |  | 0.673 | 0.655 | 0.726 |  |  |  |  |  | 0.765 |  | 0.759 | 0.769 | 0.984 |  |  |  |  |  |
| NCI-H1650 | 0.384 | 0.327 | 0.331 | 0.36 | 0.358 |  |  |  |  |  | 0.722 | 0.63 | 0.776 | 0.845 | 0.682 | 0.202 | 0.205 | 0.228 | 0.215 | 0.202 |
| NCI-H1703 |  |  |  |  |  | 0.323 | 0.319 | 0.399 | 0.373 | 0.366 | 0.396 |  | 0.461 | 0.277 | 0.291 | 0.253 | 0.427 | 0.363 | 0.307 | 0.315 |
| NCI-H1793 | 0.674 | 0.699 | 0.929 | 0.814 | 0.828 |  | 0.635 | 0.815 | 0.847 | 0.7 | 0.797 | 0.736 | 0.971 | 0.681 | 0.874 |  |  |  |  |  |
| NCI-H1944 | 0.669 |  | 0.64 | 0.58 | 0.693 | 0.828 |  | 0.805 | 0.803 | 0.984 | 0.376 |  | 0.392 | 0.416 | 0.367 |  |  |  |  |  |
| NCI-H2170 | 0.279 | 0.251 | 0.262 | 0.279 | 0.266 | 0.751 | 0.759 | 0.771 | 0.793 | 0.793 | 0.595 | 0.628 | 0.61 | 0.581 | 0.547 |  |  |  |  |  |
| NCI-H2342 | 0.603 | 0.704 | 0.788 | 0.709 | 0.742 |  |  |  |  |  | 0.402 | 0.409 | 0.474 | 0.39 | 0.451 |  |  |  |  |  |
| SK-MES-1 | 0.93 | 0.852 | 0.857 | 0.882 | 0.85 | 0.934 | 0.823 | 0.884 | 0.92 | 0.906 | 0.768 | 0.765 | 0.775 | 0.737 | 0.698 |  |  |  |  |  |

From the supplement of paper PMC10307832
